Laboratory results taken from PMC4897628, “CRF receptor 1 antagonism and brain distribution of active components contribute to the ameliorative effect of rikkunshito on stress-induced anorexia” (Scientific Reports, 2016).

What was measured:
[1] = biological target: T1, CRFR1 (human CRF receptor 1, corticotropin-releasing factor receptor 1) (Homo sapiens, UniProt P34998); experiment: HTRF cAMP assay, antagonist mode, transfected CHO cells; assay type: cell-based
T1 construct: gene CRHR1; receptor expressed in transfected CHO cells (Cerep)
T1 sequence (P34998 24-415): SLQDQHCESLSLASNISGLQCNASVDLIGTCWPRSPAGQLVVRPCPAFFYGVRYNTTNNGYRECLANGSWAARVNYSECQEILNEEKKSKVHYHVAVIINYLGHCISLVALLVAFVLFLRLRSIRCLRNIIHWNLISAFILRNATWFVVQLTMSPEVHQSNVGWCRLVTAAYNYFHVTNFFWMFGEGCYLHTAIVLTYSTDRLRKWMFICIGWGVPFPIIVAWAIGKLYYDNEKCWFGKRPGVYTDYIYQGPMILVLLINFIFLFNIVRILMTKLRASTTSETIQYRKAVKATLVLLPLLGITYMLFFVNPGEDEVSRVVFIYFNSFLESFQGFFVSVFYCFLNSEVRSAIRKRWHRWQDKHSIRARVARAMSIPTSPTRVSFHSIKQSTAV
From the text: HTRF cAMP assay, antagonist mode, transfected CHO cells on CRFR1 (human CRF receptor 1, corticotropin-releasing factor receptor 1)

[2] = biological target: T1, CRFR1 (human CRF receptor 1, corticotropin-releasing factor receptor 1); experiment: HTRF cAMP assay, antagonist mode, transfected CHO cells; KB from IC50 by modified Cheng-Prusoff equation; assay type: cell-based
From the text: HTRF cAMP assay, antagonist mode, transfected CHO cells; KB from IC50 by modified Cheng-Prusoff equation on CRFR1 (human CRF receptor 1, corticotropin-releasing factor receptor 1)

Compound | IC50 [1] [µM] | Kb [2] [µM]
COc1c(CC=C(C)C)c(O)cc2oc(=O)c(-c3ccc(O)cc3O)cc12 [Glycycoumarin] | 52 | 1.3
CC1(C)[C@@H](O)CC[C@]2(C)[C@H]3C(=O)C=C4[C@@H]5C[C@@](C)(C(=O)O)CC[C@]5(C)CC[C@@]4(C)[C@]3(C)CC[C@@H]12 [Glycyrrhetic acid] | 14 | 0.35
O=C(/C=C/c1ccc(O)cc1)c1ccc(O)cc1O [Isoliquiritigenin] | 28 | 0.67
COc1ccc(-c2cc(=O)c3c(OC)c(OC)c(OC)c(OC)c3o2)cc1OC [Nobiletin] | 15 | 0.36
COc1ccc(-c2cc(=O)c3c(OC)c(OC)c(OC)c(OC)c3o2)cc1 [Tangeretin] | 60 | 1.5

The next lines start with the values.

IC50 [1] [µM] | Kb [2] [µM] | Compound
130 | 45 | COc1ccc([C@@H]2CC(=O)c3c(O)cc(O)cc3O2)cc1O [Hesperetin]
74 | 1.8 | CCCCCCC/C=C/C(=O)CCc1ccc(O)c(OC)c1 [[8]-Shogaol]
